Reference: US12473533B2, “Gene targets for T-cell-based immunotherapy” (The Regents of the University of California, priority 2018, dated 2025)

System: CD8+ T cells
Test: Dose titration of CGS-21680 on T cell proliferation (CFSE)
Format: cell-based, human
Conditions: CFSE-labeled CD8+ T cells, two donors
Description: FIG. 12A-E. Screen for Resistance to an Immunosuppressive Signal in Primary T Cells Using SLICE, Related to FIG. 6. Section A: a dose titration of adenosine receptor agonist CGS-21680 for the optimal effects on T cell proliferation inhibition identified 20 μM as sufficiently suppressive. Shown are representative CFSE profiles for varying concentrations of CGS-21680, as labeled at the top of each panel. Data is for CFSE-labeled CD8^+ T cells from two human donors. Section C: Comparison of the overlapping top 25 hits for the two screen conditions (CGS-21680 and vehicle). We noted that while many hits from the vehicle screen also boosted proliferation in the presence of the immunosuppressive adenosine agonist (trending along diagonal), ADORA2A and FAM105A sgRNAs were enriched selectively in the setting of the adenosine agonist. ADORA2A and FAM105A were the only hits in the top 0.1% by LFC in the CGS-21680 treated condition and also in the top 0.1% by LFC difference between the CGS-21680 and the vehicle GW screen conditions. Section D: Paralogs FAM105A and OTULIN (FAM105B) are 40% homologous and are encoded at neighboring sites on chromosome 5. […] A non-synonymous single nucleotide polymorphism (SNP) in FAM105A has been linked to allergic disease by genome wide association studies (Ferreira et al., 2017). […]

With `CCNC(=O)[C@H]1O[C@@H](n2cnc3c(N)nc(NCCc4ccc(CCC(=O)O)cc4)nc32)[C@H](O)[C@@H]1O` [CGS-21680] the “concentration sufficiently suppressive of T cell proliferation” value was 20 µM.
